Experimental findings from paper PMC9043826, “Dalpulapans A–E from the roots of Dalbergia stipulacea” (RSC Advances, 2021) are described below.

Assay type in all cases: cell-based
For assay [1], the system named is Vero cells (kidney of African green monkey cells; normal cells). The experiment in a line: MTT cytotoxicity assay against Vero (normal) cells. The settings on record: Chlorocebus sabaeus. The procedure:
(§1) All isolated compounds, except 12, were evaluated for cytotoxicity against A549 (lung cancer cells), HeLa (cervical cancer cells) and Vero cells using the MTT assay.
(§2) MTT (3-(4,5-dimethylthiazol-2-yl)-2,5-diphenyltetrazolium bromide) assay was performed to evaluate the cytotoxic effect of the compounds. The procedure has been explained in a previous report.[14] In brief, all cells were cultured in RPMI 1640 medium supplemented with 10% fetal bovine serum, penicillin (100 U mL^−1) and streptomycin (100 μg mL^−1) (Gibco-BRL, USA) and incubated at 37 °C in a humidified atmosphere of 5% CO2. For preliminary testing, cells were exposed to the selected compounds at a concentration of 100 μg mL^−1 for 24, 48 and 72 hours. […] Control groups were treated with a solvent (a mixture of DMSO and ethanol; 1 : 1). After incubation, the medium was replaced with 110 μL of fresh medium containing MTT (0.5 mg mL^−1 in PBS) (Sigma Chemical Co., St. Louis, MO, USA) and incubated for 2 h. […] The absorbance of formazan was measured with a microplate reader (Bio-Rad Laboratories, USA) at the wavelength of 550 nm using 655 nm as a reference wavelength. […] The percentage of viable cells which corresponds to the production of formazan was calculated as previously described (Kumnerdkhonkaen et al. 2018).% Cell viability = [sample (A550 − A655)/control (A550 − A655)] × 100

Assay [2] relates to HeLa (cervical cancer cells). The experiment in a line: MTT cytotoxicity assay against HeLa cells. To be noted: Homo sapiens. The procedure: as §1, §2
A further assay has as its system A549 (lung cancer cells). The experiment in a line: MTT cytotoxicity assay against A549 cells. To be noted: Homo sapiens. The method, then: as §1, §2

As to `CC(C)=CCC/C(C)=C/Cc1c(O)ccc2c1OC[C@H]1c3cc4c(cc3O[C@@H]21)OCO4` [Compound 6, R,R-velucarpin A], the IC50 stood at 29.2 ± 1.16 µM in assay [1], 10.9 ± 0.42 µM in assay [2] and 14.6 ± 1.31 µM in the assay with A549 (lung cancer cells).
